Results on 24 molecules are retold here after patent US9624170B2, “4-(piperrazin-1-yl)-pyrrolidin-2-one compounds as monoacylglycerol lipase (MAGL) inhibitors” (TAKEDA PHARMACEUTICAL COMPANY LIMITED, priority 2013, dated 2017).

The structures appear in SMILES notation.

In the first assay the target is T1, human MAGL (His-hMAGL) (Homo sapiens, UniProt Q99685).
T1 construct: made in house; host or cells: Escherichia coli BL21(DE3)
T1 sequence (Q99685 1-303): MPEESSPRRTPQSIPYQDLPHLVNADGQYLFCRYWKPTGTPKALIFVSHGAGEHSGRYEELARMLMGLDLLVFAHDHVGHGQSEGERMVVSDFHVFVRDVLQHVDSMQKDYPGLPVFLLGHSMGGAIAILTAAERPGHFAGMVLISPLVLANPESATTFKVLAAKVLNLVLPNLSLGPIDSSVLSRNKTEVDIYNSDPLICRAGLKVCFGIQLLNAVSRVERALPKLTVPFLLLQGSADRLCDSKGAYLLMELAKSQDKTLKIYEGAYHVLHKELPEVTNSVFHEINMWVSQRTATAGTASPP
The assay can be described thus: Measurement of MAGL inhibitory activity by mass spectrometry. The assay is classed as biochemical. As to conditions: 10 μM test compound; substrate 2-arachidonylglycerol, arachidonic acid by RapidFire-mass spectrometry. Put shortly:
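His-tagged human MAGL was reacted with 150 μM 2-arachidonylglycerol substrate (stock, added by 5 μL) for 10 min at room temperature, then stopped with formic acid. Arachidonic acid product was quantified by RapidFire–triple-quadrupole MS in negative SRM mode, corrected by arachidonic acid-d8, and converted to percent inhibition.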
In general, inhibition refers to the relative decrease from the control value, in per cent. Regarding `Cc1ccccc1-c1ccc(N2CC(N3CCN(C(=O)c4nccs4)CC3)CC2=O)cc1` (stereo not drawn) [Example 176, 1-(2′-methylbiphenyl-4-yl)-4-(4-(1,3-thiazol-2-ylcarbonyl)piperazin-1-yl)pyrrolidin-2-one], the inhibition at 10 µM is 100%.

As for `Cc1ccncc1-c1ccc(N2CC(N3CCN(C(=O)c4nccs4)CC3)CC2=O)cc1` (stereo not drawn) [Example 177, 1-(4-(4-methylpyridin-3-yl)phenyl)-4-(4-(1,3-thiazol-2-ylcarbonyl)piperazin-1-yl)pyrrolidin-2-one], the inhibition at 10 µM is 80%.

With `Cc1cnccc1-c1ccc(N2CC(N3CCN(C(=O)c4nccs4)CC3)CC2=O)cc1` (stereo not drawn) [Example 178, 1-(4-(3-methylpyridin-4-yl)phenyl)-4-(4-(1,3-thiazol-2-ylcarbonyl)piperazin-1-yl)pyrrolidin-2-one], the inhibition at 10 µM was 81%.

The same assay, now with this note: MAGL inhibitory rate, test compound 10 μM, His-hMAGL, substrate 2-arachidonylglycerol, RapidFire-mass spectrometry.
`O=C(c1nccs1)N1CCN(C2CC(=O)N(c3ccc(-c4ccccc4F)cc3)C2)CC1` (stereo not drawn) [Example 179, 1-(2′-fluorobiphenyl-4-yl)-4-(4-(1,3-thiazol-2-ylcarbonyl)piperazin-1-yl)pyrrolidin-2-one]: the inhibition at 10 µM turned out to be 98%.

In the case of `Cc1cc(-c2ccc(N3CC(N4CCN(C(=O)c5nccs5)CC4)CC3=O)cc2)n(C)n1` (stereo not drawn) [Example 180, 1-(4-(1,3-dimethyl-1H-pyrazol-5-yl)phenyl)-4-(4-(1,3-thiazol-2-ylcarbonyl)piperazin-1-yl)pyrrolidin-2-one], the inhibition at 10 µM was 94%.

Take `Cc1nn(C)cc1-c1ccc(N2CC(N3CCN(C(=O)c4nccs4)CC3)CC2=O)cc1` (stereo not drawn) [Example 181, 1-(4-(1,3-dimethyl-1H-pyrazol-4-yl)phenyl)-4-(4-(1,3-thiazol-2-ylcarbonyl)piperazin-1-yl)pyrrolidin-2-one]: the inhibition at 10 µM was determined as 94%.

Consider `Cc1c(-c2ccc(N3CC(N4CCN(C(=O)c5nccs5)CC4)CC3=O)cc2)cnn1C` (stereo not drawn) [Example 182, 1-(4-(1,5-dimethyl-1H-pyrazol-4-yl)phenyl)-4-(4-(1,3-thiazol-2-ylcarbonyl)piperazin-1-yl)pyrrolidin-2-one], for which the inhibition at 10 µM worked out at 92%.

Regarding `O=C(c1nccs1)N1CCN(C2CC(=O)N(c3ccc(-c4ccoc4)cc3)C2)CC1` (stereo not drawn) [Example 184, 1-(4-(3-furyl)phenyl)-4-(4-(1,3-thiazol-2-ylcarbonyl)piperazin-1-yl)pyrrolidin-2-one], the inhibition at 10 µM was 98%.

Consider `N#Cc1cccc(-c2ccc(N3CC(N4CCN(C(=O)c5nccs5)CC4)CC3=O)cc2)c1` (stereo not drawn) [Example 185, 4′-(2-oxo-4-(4-(1,3-thiazol-2-ylcarbonyl)piperazin-1-yl)pyrrolidin-1-yl)biphenyl-3-carbonitrile], for which the inhibition at 10 µM turned out to be 100%.

As to `O=C(c1nccs1)N1CCN(C2CC(=O)N(c3ccc(-c4cccc(CO)c4)cc3)C2)CC1` (stereo not drawn) [Example 187, 1-(3′-(hydroxymethyl)biphenyl-4-yl)-4-(4-(1,3-thiazol-2-ylcarbonyl)piperazin-1-yl)pyrrolidin-2-one], the inhibition at 10 µM stood at 96%.

Turning to `O=C(c1nccs1)N1CCN(C2CC(=O)N(c3ccc(-c4ccccc4Cl)cc3)C2)CC1` (stereo not drawn) [Example 188, 1-(2′-chlorobiphenyl-4-yl)-4-(4-(1,3-thiazol-2-ylcarbonyl)piperazin-1-yl)pyrrolidin-2-one], the inhibition at 10 µM was found to be 99%.

Consider `Cc1nc(C)c(-c2ccc(N3CC(N4CCN(C(=O)c5nccs5)CC4)CC3=O)cc2)s1` (stereo not drawn) [Example 189, 1-(4-(2,4-dimethyl-1,3-thiazol-5-yl)phenyl)-4-(4-(1,3-thiazol-2-ylcarbonyl)piperazin-1-yl)pyrrolidin-2-one], for which the inhibition at 10 µM is 97%.

As to `CC(=O)Nc1cccc(-c2ccc(N3CC(N4CCN(C(=O)c5nccs5)CC4)CC3=O)cc2)c1` (stereo not drawn) [Example 191, N-(4′-(2-oxo-4-(4-(1,3-thiazol-2-ylcarbonyl)piperazin-1-yl)pyrrolidin-1-yl)biphenyl-3-yl)acetamide], the inhibition at 10 µM was determined as 96%.

Turning to `NS(=O)(=O)c1ccc(-c2ccc(N3CC(N4CCN(C(=O)c5nccs5)CC4)CC3=O)cc2)cc1` (stereo not drawn) [Example 193, 4′-(2-oxo-4-(4-(1,3-thiazol-2-ylcarbonyl)piperazin-1-yl)pyrrolidin-1-yl)biphenyl-4-sulfonamide], the inhibition at 10 µM was found to be 97%.

As to `NS(=O)(=O)c1cccc(-c2ccc(N3CC(N4CCN(C(=O)c5nccs5)CC4)CC3=O)cc2)c1` (stereo not drawn) [Example 194, 4′-(2-oxo-4-(4-(1,3-thiazol-2-ylcarbonyl)piperazin-1-yl)pyrrolidin-1-yl)biphenyl-3-sulfonamide], the inhibition at 10 µM was 96%.

As to `O=C(c1nccs1)N1CCN(C2CC(=O)N(c3ccc(-c4ccncc4)cc3)C2)CC1` (stereo not drawn) [Example 196, 1-(4-(pyridin-4-yl)phenyl)-4-(4-(1,3-thiazol-2-ylcarbonyl)piperazin-1-yl)pyrrolidin-2-one], the inhibition at 10 µM stood at 83%.

Take `O=C(c1nccs1)N1CCN(C2CC(=O)N(c3ccc(-c4cccnc4)cc3)C2)CC1` (stereo not drawn) [Example 197, 1-(4-(pyridin-3-yl)phenyl)-4-(4-(1,3-thiazol-2-ylcarbonyl)piperazin-1-yl)pyrrolidin-2-one]: the inhibition at 10 µM turned out to be 89%.

Regarding `O=C(c1nccs1)N1CCN(C2CC(=O)N(c3cccc(-c4cccnc4Cl)c3)C2)CC1` (stereo not drawn) [Example 199, 1-(3-(2-chloropyridin-3-yl)phenyl)-4-(4-(1,3-thiazol-2-ylcarbonyl)piperazin-1-yl)pyrrolidin-2-one], the inhibition at 10 µM turned out to be 101%.

On to `O=C1Cc2ccc(-c3cccc(N4CC(N5CCN(C(=O)c6nccs6)CC5)CC4=O)c3)cc2N1` (stereo not drawn) [Example 200, 6-(3-(2-oxo-4-(4-(1,3-thiazol-2-ylcarbonyl)piperazin-1-yl)pyrrolidin-1-yl)phenyl)-1,3-dihydro-2H-indol-2-one], for which the inhibition at 10 µM amounted to 98%.

`O=C(c1nccs1)N1CCN(C2CC(=O)N(c3ccnc(-c4ccccc4)c3)C2)CC1` (stereo not drawn) [Example 201, 1-(2-phenylpyridin-4-yl)-4-(4-(1,3-thiazol-2-ylcarbonyl)piperazin-1-yl)pyrrolidin-2-one]: the inhibition at 10 µM was found to be 84%.

For `Cc1ccncc1-c1cccc(N2CC(N3CCN(C(=O)c4nccs4)CC3)CC2=O)c1` (stereo not drawn) [Example 202, 1-(3-(4-methylpyridin-3-yl)phenyl)-4-(4-(1,3-thiazol-2-ylcarbonyl)piperazin-1-yl)pyrrolidin-2-one], the inhibition at 10 µM came out at 102%.

As for `Cc1cnccc1-c1cccc(N2CC(N3CCN(C(=O)c4nccs4)CC3)CC2=O)c1` (stereo not drawn) [Example 203, 1-(3-(3-methylpyridin-4-yl)phenyl)-4-(4-(1,3-thiazol-2-ylcarbonyl)piperazin-1-yl)pyrrolidin-2-one], the inhibition at 10 µM was determined as 99%.

For the molecule `Cc1cc(-c2cccc(N3CC(N4CCN(C(=O)c5nccs5)CC4)CC3=O)c2)ccn1` (stereo not drawn) [Example 204, 1-(3-(2-methylpyridin-4-yl)phenyl)-4-(4-(1,3-thiazol-2-ylcarbonyl)piperazin-1-yl)pyrrolidin-2-one], the inhibition at 10 µM was found to be 101%.

In the case of `O=C(c1nccs1)N1CCN([C@@H]2CC(=O)N(c3ccc4c(cnn4-c4ccc(F)cc4)c3)C2)CC1` [Example 205, (4R)-1-(1-(4-fluorophenyl)-1H-indazol-5-yl)-4-(4-(1,3-thiazol-2-ylcarbonyl)piperazin-1-yl)pyrrolidin-2-one], the inhibition at 10 µM amounted to 100%.
